Results taken from ChEMBL document CHEMBL1201862, “PubChem BioAssay data set” (2004).
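Where inhibition never reached the appropriate level, the endpoint shown equals the highest concentration tested. Otherwise, values were interpolated linearly from a five-concentration, 48-hour dose response in 96-well plates. Abbreviation: GI50, concentration required for 50% inhibition of growth.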 Calls of active or inactive are those of the source. Rule as the data show it: active = GI50 up to about 1.1 µM and inactive = higher.

Tests used:
Assay in all cases: DTP human tumour cell line panel, 48 h
[1] = test system: SR
[2] = test system: MCF7
[3] = test system: UO-31
[4] = test system: UACC-62
[5] = test system: SF-539
[6] = test system: HL-60
[7] = test system: U-251
[8] = test system: SK-MEL-28
[9] = test system: EKVX
[10] = test system: SNB-75
[11] = test system: NCI/ADR-RES
[12] = test system: OVCAR-3
[13] = test system: HOP-62
[14] = test system: NCI-H460
[15] = test system: HOP-92
[16] = test system: SNB-19
[17] = test system: LOX IMVI
[18] = test system: SK-OV-3
[19] = test system: SW-620
[20] = test system: SF-295

Structure (SMILES)	GI50 [1]	GI50 [2]	GI50 [3]	GI50 [4]	GI50 [5]	GI50 [6]	GI50 [7]	GI50 [8]	GI50 [9]	GI50 [10]	GI50 [11]	GI50 [12]	GI50 [13]	GI50 [14]	GI50 [15]	GI50 [16]	GI50 [17]	GI50 [18]	GI50 [19]	GI50 [20]
C=C1C(=O)C2=CC1CCC(=O)C1(C)CCC(OC(C)=O)C(C)(C)C1CC2O (stereo not given)	0.347 µM (active)	0.798 µM (active)	2.06 µM (inactive)	2.27 µM (inactive)	2.1 µM (inactive)	0.288 µM (active)	2.93 µM (inactive)	3.66 µM (inactive)	3.91 µM (inactive)	8.32 µM (inactive)	4.11 µM (inactive)	3.73 µM (inactive)	8.45 µM (inactive)	1.63 µM (inactive)	4.22 µM (inactive)	3.58 µM (inactive)	1.14 µM (inactive)	8.95 µM (inactive)	2.42 µM (inactive)	9.31 µM (inactive)
O=C(CCN1CCCCC1)C(=Cc1ccccc1)C(=O)CCN1CCCCC1	4.36 µM (inactive)	35.8 µM (inactive)	> 100 µM (inactive)	31.4 µM (inactive)	49.8 µM (inactive)	21.7 µM (inactive)	> 100 µM (inactive)	> 10 µM (inactive)	> 100 µM (inactive)	> 100 µM (inactive)	74.5 µM (inactive)	3.74 µM (inactive)	> 100 µM (inactive)	> 100 µM (inactive)	42.8 µM (inactive)	> 100 µM (inactive)	38.7 µM (inactive)	> 100 µM (inactive)	29.7 µM (inactive)	> 100 µM (inactive)
CCOC(=O)C1(Cc2c[nH]c3ccccc23)C(O)CCCN1C(C)=O (stereo not given)	81.5 µM (inactive)	> 100 µM (inactive)	> 100 µM (inactive)	> 100 µM (inactive)	> 100 µM (inactive)	> 100 µM (inactive)	> 100 µM (inactive)	> 100 µM (inactive)	> 100 µM (inactive)	> 100 µM (inactive)	> 100 µM (inactive)	> 100 µM (inactive)	> 100 µM (inactive)	> 100 µM (inactive)	> 100 µM (inactive)	> 100 µM (inactive)	> 100 µM (inactive)	> 100 µM (inactive)	> 100 µM (inactive)	> 100 µM (inactive)
O=C(NCCCNCCCCNCCCNC(=O)c1cc(-c2ccccc2)nc2ccccc12)c1cc(-c2ccccc2)nc2ccccc12	1.97 µM (inactive)	2.1 µM (inactive)	20.9 µM (inactive)	2.16 µM (inactive)	1.9 µM (inactive)	1.79 µM (inactive)	1.66 µM (inactive)	1.87 µM (inactive)	5.18 µM (inactive)	1.85 µM (inactive)	28.4 µM (inactive)	2.66 µM (inactive)	2.36 µM (inactive)	2.32 µM (inactive)	1.48 µM (inactive)	1.67 µM (inactive)	1.64 µM (inactive)	2.27 µM (inactive)	2.62 µM (inactive)	3.26 µM (inactive)
Cc1cccc2c(N)c3cccc(C(=O)NCCN4CCOCC4)c3nc12	0.274 µM (active)	0.265 µM (active)	0.46 µM (active)	0.984 µM (active)	0.171 µM (active)	0.362 µM (active)	0.531 µM (active)	1.45 µM (inactive)	0.664 µM (active)	0.13 µM (active)	4.35 µM (inactive)	1.47 µM (inactive)	0.363 µM (active)	0.605 µM (active)	3.48 µM (inactive)	0.236 µM (active)	0.23 µM (active)	1.05 µM (active)	0.166 µM (active)	0.318 µM (active)
CCCC[C@H]1C(=O)O[C@H](C)[C@H](NC(=O)c2cccc(NC=O)c2O)C(=O)O[C@@H](C)[C@@H]1OC(=O)CC(C)C [ANTIMYCIN A3]	< 0.0347 µM (active)	0.0442 µM (active)	4.94 µM (inactive)	0.16 µM (active)	12.8 µM (inactive)	0.0968 µM (active)	0.149 µM (active)	6.73 µM (inactive)	0.321 µM (active)	21.4 µM (inactive)	5.32 µM (inactive)	2.38 µM (inactive)	8.41 µM (inactive)	< 0.01 µM (active)	5.36 µM (inactive)	2.91 µM (inactive)	< 0.01 µM (active)	12 µM (inactive)	8.18 µM (inactive)	< 0.0421 µM (active)
O=C(O)Cc1ccccc1 [PHENYLACETIC ACID]	> 1000 µM (inactive)	> 1000 µM (inactive)	> 100 µM (inactive)	> 100 µM (inactive)	> 100 µM (inactive)	> 100 µM (inactive)	> 100 µM (inactive)	> 100 µM (inactive)	> 100 µM (inactive)	> 100 µM (inactive)	> 100 µM (inactive)	> 100 µM (inactive)	> 100 µM (inactive)	> 100 µM (inactive)	11.4 µM (inactive)	> 100 µM (inactive)	> 100 µM (inactive)	> 100 µM (inactive)	> 100 µM (inactive)	841 µM (inactive)
